Values joined by “and” are separate entries in the source; they are usually repeats but may differ in a detail not shown here. Equal values may be shown once.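 Interpolation was linear, between the two tested concentrations surrounding the appropriate level; five concentrations were tested over 48 hours in 96-well plates. GI50: concentration for 50% inhibition of growth. TGI denotes the concentration required for complete inhibition of growth.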
Experiments:
Experiment in all cases: growth of human tumour cells (NCI), 48 h
SN12C renal = test system: SN12C renal
HL-60(TB) leukemia = test system: HL-60(TB) leukemia
OVCAR-3 ovarian = test system: OVCAR-3 ovarian
HT29 colon = test system: HT29 colon
IGROV1 ovarian = test system: IGROV1 ovarian
786-0 renal = test system: 786-0 renal
SW-620 colon = test system: SW-620 colon
OVCAR-4 ovarian = test system: OVCAR-4 ovarian
NCI-H23 lung = test system: NCI-H23 lung
U251 CNS = test system: U251 CNS

Compound	TGI (SN12C renal)	TGI (HL-60(TB) leukemia) [µM]	TGI (OVCAR-3 ovarian) [µM]	TGI (HT29 colon) [µM]	TGI (IGROV1 ovarian)	TGI (786-0 renal)	TGI (SW-620 colon)	GI50 (OVCAR-4 ovarian) [µM]	TGI (OVCAR-4 ovarian)	GI50 (SN12C renal) [µM]	GI50 (NCI-H23 lung) [µM]	TGI (NCI-H23 lung) [µM]	GI50 (HL-60(TB) leukemia) [µM]	GI50 (OVCAR-3 ovarian) [µM]	GI50 (HT29 colon) [µM]	GI50 (IGROV1 ovarian) [µM]	GI50 (U251 CNS) [µM]	TGI (U251 CNS) [µM]	GI50 (786-0 renal) [µM]	GI50 (SW-620 colon) [µM]
COc1cccc(-c2cc(=O)c3cc4c(cc3[nH]2)OCO4)c1	> 100 µM	0.896	0.452	2.37	6.12 µM	10.2 µM	> 100 µM													
CC(=O)c1ccc2c(c1)N(CCCN1CCN(CCO)CC1)c1ccccc1S2	17 µM	4.83	8.9	3.75	6.12 µM	3.64 µM	3.61 µM	3.98	14.7 µM	3.88	5.68	18.9	2.12	2.85	1.7	2.16	1.94	4.06	1.77	1.82
COc1cc(C(=O)N[C@H]2CCc3cc(OC)c(OC)c(OC)c3-c3ccc(SC)c(=O)cc32)cc(OC)c1OC	25 µM and 41.2 µM	0.578		> 100	25 µM and 62.7 µM	25 µM and 16.3 µM	25 µM and > 100 µM	0.0285	25 µM and > 100 µM	0.0145								0.0812		
CCOc1cccc2c1N[S@@](=O)S2	> 100 µM	> 100	> 100	> 100	> 100 µM	> 100 µM	> 100 µM					> 100						> 100		
CN(C)N1C(=O)SCC(c2ccccc2)(c2ccccc2)C1=O	> 100 µM	> 100	> 100	> 100		> 100 µM	> 100 µM					> 100						> 100		
C=C1C(=O)O[C@H]2[C@H]1CC/C(COC(=O)NCc1ccc(Cn3c(=O)sn(CCCCC)c3=O)cc1)=C\CC[C@@]1(C)O[C@@H]21	3.72 µM	4.12	2.75	3.89	4.8 µM	4.23 µM	2.85 µM	1.62	3.3 µM	1.71	1.94	4.1	1.1	1.41	2.09	2.11	2.2	4.93	1.98	1.31
COC(=O)C(C(=O)C(=O)Nc1ccc(C)cc1C)c1csc(-n2nc(-c3ccccc3)cc2-c2ccccc2)n1 (stereo not drawn)	> 100 µM	> 100	> 100	> 100	> 100 µM	> 100 µM	> 100 µM		> 100 µM			> 100						> 100		
CC(/C=C/C(O)=C1/C(=O)CNC1=O)=C\[C@@H](C)[C@H]1O[C@@]2(C)O[C@H](C(=O)[C@@H]3O[C@@]32C)[C@@H]1C	47.3 µM	80.6	44.6	47	44.9 µM	36.5 µM	> 100 µM					59						54.9		
Cn1c(=O)n(C)c2cc(CNCCNc3ccnc4cc(Cl)ccc34)ccc21	> 100 µM	91.2	> 100	> 100	> 100 µM	71.8 µM	> 100 µM	26.1	> 100 µM	45.7	48.8	> 100	25.1	30.8	21.1	37.4	22.1	72.1	23.1	34.6
O=c1c2c(-c3ccccc3)c3ccccc3nc2cnn1-c1ccccc1	> 100 µM	> 100	> 100	> 100	> 100 µM	> 100 µM	> 100 µM		> 100 µM			> 100						> 100		
CC(C)(C)NCC(O)COc1c(Br)c(Br)c(Br)c2c1OC(C)(C)C2 (stereo not drawn)	3.43 µM	3.1	3.11	2.75	3.36 µM	3.21 µM	3.1 µM			1.87			1.53	1.54	1.34	1.77	1.92	3.41	1.58	1.7
C=CC(C)(C)n1cc(C2=C(O)C(=O)C(c3cn(C(C)(C)C=C)c4ccccc34)=C(O)C2=O)c2ccccc21	7.03 µM	> 31.5	4.48	16.2	7.15 µM	> 34.8 µM	53.8 µM		6.92 µM			7.83						10.4		
C/C(=C(/c1ccccc1)c1ccc(OCC(O)CNCCN2CCOCC2)cc1)c1ccccc1 (stereo not drawn)	18.5 µM	4.04	7.17	4.86	15 µM	3.32 µM	3.36 µM	3.82	14.4 µM	5.08	3.87	14.5	1.95	2.43	2.03	3.97	2.03	4.52	1.74	1.77
C=C1C(=O)C23[C@H](O)C1CC[C@H]2[C@]12COC3(O)[C@@H](O)[C@@H]1C(C)(C)CC[C@@H]2O	35.3 µM	47.3	28.2	36.6	38.7 µM	24 µM	4.86 µM		33.5 µM			29.8						18.9		
CCCc1nc(Cl)nc(Cl)c1Cl	2.13 µM	0.359	0.534	1.56	2.14 µM	1.43 µM	2.17 µM		0.289 µM			2.04						2.05		
CCCC(=O)N[C@H]1CCc2cc(OC)c(OC)c(OC)c2-c2ccc(SC)c(=O)cc21	> 91.8 µM	< 0.01	< 0.0423	0.724	> 100 µM	63.1 µM	> 100 µM		> 100 µM			2.18						3.74		
COC(=O)c1cc(=O)nc2cc3cccccc3n12	> 100 µM	> 100	> 100	> 100	> 100 µM	> 100 µM	> 100 µM					> 100						> 100		

Source: PubChem BioAssay (NCI)
